Holding throughout (assay type): cell-based
One assay concerns HUT cell line. The assay is described as follows: Cell inhibition assay (SRB cell viability), HUT. The following applies: IC50 range class, 72 h, read-out: Inhibitor Activity vs HUT cell line. The procedure: (§1) The corresponding cancer cell lines (U937, HCT 116 and HUT) growing in log phase were harvested and seeded at 1000 cells/well (200 ul final volume) into 96-well tissue culture plates. Following 24 h of cell growth cells were treated with compounds (final concentration of 20 uM). Plates were then re-incubated for a further 72 h before a sulphorhodamine B (SRB) cell viability assay was conducted according to Skehan 1990 J Natl Canc Inst 82, 1107-1112.
(§2) Data were expressed as a percentage inhibition of the control, measured in the absence of inhibitor, as follows: — % inhibition=100−((S^i/S^o)×100) where S^i is the signal in the presence of inhibitor and S^o is the signal in the presence of DMSO.
(§3) IC50 values were determined by non-linear regression analysis, after fitting the results of eight data points to the equation for sigmoidal dose response with variable slope (% activity against log concentration of compound), using Graphpad Prism software.

The next assay has as its system HCT 116 cell line. The assay is described as follows: Cell inhibition assay (SRB cell viability), HCT 116. The following applies: Homo sapiens, IC50 range class, 72 h, read-out: Inhibitor Activity vs HCT 116 cell line. The procedure: as §1, §2, §3
The next assay concerns U937 cell line. Kind of assay: Cell inhibition assay (SRB cell viability), U937. As to conditions: Homo sapiens, U-937, IC50 range class, 72 h, read-out: Inhibitor Activity vs U937 cell line. The procedure: as §1, §2, §3

Structures can show the parent of a compound that is named as a salt. Bounds are passed on as bounds.

Take `COc1cc2c(Oc3cccc(F)c3)ccnc2cc1OCC[C@H](N)C(=O)OC1CCCC1` [Example 5, (S)-2-Amino-4-[4-(3-fluoro-phenoxy)-6-methoxy-quinolin-7-yloxy]-butyric acid cyclopentyl ester]: the IC50 is 1000 to 5000 nM with HUT cell line, greater than 5000 nM with HCT 116 cell line and 1000 to 5000 nM in the assay with U937 cell line.
As for `COc1cc2c(Oc3ccccc3)ccnc2cc1OCC[C@H](N)C(=O)OC1CCCC1` [Example 7, (S)-2-Amino-4-(6-methoxy-4-phenoxy-quinolin-7-yloxy)-butyric acid cyclopentyl ester], the IC50 in the assay with HUT cell line is 1000 to 5000 nM; in the assay with HCT 116 cell line, greater than 5000 nM; in the assay with U937 cell line it was 1000 to 5000 nM.
Turning to `COc1ccc(Oc2ccnc3cc(OCC[C@H](N)C(=O)OC4CCCC4)c(OC)cc23)cc1` [Example 9, (S)-2-Amino-4-[6-methoxy-4-(4-methoxy-phenoxy)-quinolin-7-yloxy]-butyric acid cyclopentyl ester], the IC50 in the assay with HUT cell line is greater than 5000 nM; with HCT 116 cell line, greater than 5000 nM; with U937 cell line, 1000 to 5000 nM.
In the case of `COc1cc2c(Oc3ccc(-c4ccccc4)cc3)ccnc2cc1OCC[C@H](N)C(=O)OC1CCCC1` [Example 11, (S)-2-Amino-4-[4-(biphenyl-4-yloxy)-6-methoxy-quinolin-7-yloxy]-butyric acid cyclopentyl ester], the IC50 in the assay with HUT cell line, in the assay with HCT 116 cell line and with U937 cell line was 1000 to 5000 nM each time.
Turning to `COc1cc2c(Oc3ccc4sc(C)nc4c3)ccnc2cc1OCC[C@H](N)C(=O)OC1CCCC1` [Example 12, (S)-2-Amino-4-[6-methoxy-4-(2-methyl-benzothiazol-5-yloxy)-quinolin-7-yloxy]-butyric acid cyclopentyl ester], the IC50 was greater than 5000 nM with HUT cell line, greater than 5000 nM with HCT 116 cell line and 1000 to 5000 nM in the assay on U937 cell line.
In the case of `COc1cc2c(Oc3ccc4cccnc4c3)ccnc2cc1OCC[C@H](N)C(=O)OC1CCCC1` [Example 14, (S)-2-Amino-4-[6-methoxy-4-(quinolin-7-yloxy)-quinolin-7-yloxy]-butyric acid cyclopentyl ester], the IC50 is 1000 to 5000 nM in the assay with HUT cell line, 1000 to 5000 nM in the assay on HCT 116 cell line and less than 1000 nM with U937 cell line.
As to `COc1cc2c(Nc3cnn(CC(=O)Nc4ccccc4)c3)ccnc2cc1OCC[C@H](N)C(=O)OC1CCCC1` [Example 22, (S)-2-Amino-4-[6-methoxy-4-(1-phenylcarbamoylmethyl-1H-pyrazol-4-ylamino)-quinolin-7-yloxy]-butyric acid cyclopentyl ester], the IC50 in the assay with HUT cell line was greater than 5000 nM; with HCT 116 cell line, greater than 5000 nM; in the assay with U937 cell line it was 1000 to 5000 nM.
`COc1cc2c(Nc3cnn(CC(=O)Nc4cccc(F)c4)c3)ccnc2cc1OCC[C@H](N)C(=O)OC1CCCC1` [Example 24, (S)-2-Amino-4-(4-{1-[(3-fluoro-phenylcarbamoyl)-methyl]-1H-pyrazol-4-ylamino}-6-methoxy-quinolin-7-yloxy)-butyric acid cyclopentyl ester]: the IC50 in the assay with HUT cell line, in the assay with HCT 116 cell line and with U937 cell line was greater than 5000 nM throughout.
For `COc1cc2c(Nc3cnc(NC(=O)c4ccccc4)nc3)ccnc2cc1OCC[C@H](N)C(=O)OC1CCCC1` [Example 25, (S)-2-Amino-4-[4-(2-benzoylamino-pyrimidin-5-ylamino)-6-methoxy-quinolin-7-yloxy]-butyric acid cyclopentyl ester], the IC50 in the assay on HUT cell line, with HCT 116 cell line and in the assay with U937 cell line was 1000 to 5000 nM each time.
Turning to `COc1cc2c(Nc3cnc(NC(=O)c4ccccc4)nc3)ncnc2cc1OCC[C@H](N)C(=O)OC1CCCC1` [Example 31, (S)-2-Amino-4-[4-(2-benzoylamino-pyrimidin-5-ylamino)-6-methoxy-quinazolin-7-yloxy]-butyric acid cyclopentyl ester], the IC50 with HUT cell line, with HCT 116 cell line and with U937 cell line was greater than 5000 nM throughout.
Regarding `COc1cc2c(Nc3ccc(NC(=O)c4ccccc4)cc3)c(Br)cnc2cc1OCC[C@H](N)C(=O)OC1CCCC1` [Example 33, Dihydrochloride], the results for the IC50 in the assay on HUT cell line, in the assay with HCT 116 cell line and in the assay with U937 cell line were 1000 to 5000 nM, greater than 5000 nM and 1000 to 5000 nM, respectively.
Take `COc1cc2c(Oc3ccc(NC(=O)c4ccccc4)cc3)ccnc2cc1OCC[C@H](NCC(C)C)C(=O)OC1CCCC1` [Example 37, (S)-4-[4-(4-Benzoylamino-phenoxy)-6-methoxy-quinolin-7-yloxy]-2-isobutylamino-butyric acid cyclopentyl ester]: the IC50 with HUT cell line is 1000 to 5000 nM; with HCT 116 cell line, 1000 to 5000 nM; in the assay with U937 cell line, less than 1000 nM.
On to `CCN[C@@H](CCOc1cc2nccc(Oc3ccc(NC(=O)c4ccccc4)cc3)c2cc1OC)C(=O)OC1CCCC1` [Example 38, (S)-4-[4-(4-Benzoylamino-phenoxy)-6-methoxy-quinolin-7-yloxy]-2-ethylamino-butyric acid cyclopentyl ester], for which the figures for the IC50 in the assay with HUT cell line, in the assay with HCT 116 cell line and in the assay with U937 cell line were 1000 to 5000 nM, 1000 to 5000 nM and less than 1000 nM, respectively.
For the compound `COc1cc2c(Oc3ccc(NC(=O)c4ccccc4)cc3)ccnc2cc1OCC[C@H](NC1CCCCC1)C(=O)OC1CCCC1` [Example 39, (S)-4-[4-(4-Benzoylamino-phenoxy)-6-methoxy-quinolin-7-yloxy]-2-cyclohexylamino-butyric acid cyclopentyl ester], the figures for the IC50 with HUT cell line, in the assay on HCT 116 cell line and in the assay with U937 cell line were greater than 5000 nM, greater than 5000 nM and 1000 to 5000 nM, respectively.
As for `COc1cc2c(Oc3ccc(NC(=O)c4ccccc4)cc3)ccnc2cc1OCC[C@H](NCc1ccccc1)C(=O)OC1CCCC1` [Example 40, (S)-4-[4-(4-Benzoylamino-phenoxy)-6-methoxy-quinolin-7-yloxy]-2-benzylamino-butyric acid cyclopentyl ester], the IC50 is 1000 to 5000 nM in the assay on HUT cell line, 1000 to 5000 nM with HCT 116 cell line and less than 1000 nM in the assay with U937 cell line.
Regarding `CCN(CC)[C@@H](CCOc1cc2nccc(Oc3ccc(NC(=O)c4ccccc4)cc3)c2cc1OC)C(=O)OC1CCCC1` [Example 41, (S)-4-[4-(4-Benzoylamino-phenoxy)-6-methoxy-quinolin-7-yloxy]-2-diethylamino-butyric acid cyclopentyl ester], the IC50 in the assay on HUT cell line, in the assay on HCT 116 cell line and in the assay on U937 cell line was 1000 to 5000 nM throughout.
With `COc1cc2c(Oc3ccc(NC(=O)c4ccccc4)cc3)ccnc2cc1OCC[C@H](NC(=O)c1cccs1)C(=O)OC1CCCC1` [Example 44, (S)-4-[4-(4-Benzoylamino-phenoxy)-6-methoxy-quinolin-7-yloxy]-2-[(thiophene-2-carbonyl)-amino]-butyric acid cyclopentyl ester], the figures for the IC50 with HUT cell line, with HCT 116 cell line and with U937 cell line were 1000 to 5000 nM, greater than 5000 nM and less than 1000 nM, respectively.
In the case of `COc1cccc(CC(=O)N[C@@H](CCOc2cc3nccc(Oc4ccc(NC(=O)c5ccccc5)cc4)c3cc2OC)C(=O)OC2CCCC2)c1` [Example 45, (S)-4-[4-(4-Benzoylamino-phenoxy)-6-methoxy-quinolin-7-yloxy]-2-[2-(3-methoxy-phenyl)-acetylamino]-butyric acid cyclopentyl ester], the IC50 in the assay with HUT cell line was less than 1000 nM; in the assay with HCT 116 cell line, 1000 to 5000 nM; in the assay with U937 cell line it was less than 1000 nM.
As to `COc1cc2c(Oc3ccc(NC(=O)c4ccccc4)cc3)ccnc2cc1OCC[C@H](N)C(=O)OC1CCC(C)C1` (stereo partly drawn) [Example 46, (S)-2-Amino-4-[4-(4-benzoylamino-phenoxy)-6-methoxy-quinolin-7-yloxy]-butyric acid 3-methyl-cyclopentyl ester], the IC50 in the assay on HUT cell line, with HCT 116 cell line and in the assay with U937 cell line was less than 1000 nM in each case.
Consider `COc1cc2c(Oc3ccc(NC(=O)c4ccccc4)cc3)ccnc2cc1OCC[C@H](N)C(=O)OC12CCC(CC1)C2` [Example 47, (S)-2-Amino-4-[4-(4-benzoylamino-phenoxy)-6-methoxy-quinolin-7-yloxy]-butyric acid bicyclo[2.2.1]hept-1-yl ester], for which the IC50 in the assay with HUT cell line, with HCT 116 cell line and in the assay on U937 cell line was less than 1000 nM throughout.
For the compound `COc1cc2c(Oc3ccc(NC(=O)c4ccccc4)cc3)ccnc2cc1OCC[C@H](N)C(=O)OC1CCCCC1` [Example 48, (S)-2-Amino-4-[4-(4-benzoylamino-phenoxy)-6-methoxyquinolin-7-yloxy]-butyric acid cyclohexyl ester], the IC50 in the assay with HUT cell line, in the assay on HCT 116 cell line and in the assay with U937 cell line was less than 1000 nM throughout.
With `COc1cc2c(Oc3ccc(NC(=O)c4ccccc4)cc3)ccnc2cc1OCC[C@H](N)C(=O)OC1CCCC1C` (stereo partly drawn) [Example 49, (S)-2-Amino-4-[4-(4-benzoylamino-phenoxy)-6-methoxy-quinolin-7-yloxy]-butyric acid 2-methyl-cyclopentyl ester], the IC50 in the assay with HUT cell line, in the assay on HCT 116 cell line and with U937 cell line was less than 1000 nM throughout.
As for `CCOC(=O)[C@@H](N)CCOc1cc2nccc(Oc3ccc(NC(=O)c4ccccc4)cc3)c2cc1OC` [Example 51, (S)-2-Amino-4-[4-(4-benzoylamino-phenoxy)-6-methoxy-quinolin-7-yloxy]-butyric acid Ethyl ester], the IC50 in the assay on HUT cell line, in the assay on HCT 116 cell line and with U937 cell line was less than 1000 nM throughout.
